Source: patent US8815903B2, “Indole derivative and pharmacologically acceptable salt thereof” (Kissei Pharmaceutical Co., Ltd., priority 2011, dated 2014)

Legend:
[1] = target: T1, rat EP1 receptor (Rattus norvegicus, UniProt P70597); test: Test for confirmation of EP1 receptor antagonism (inhibition of PGE2-induced increase in intracellular calcium concentration); assay type: cell-based; settings: rat EP1 receptor-expressing COS-1 cells; prostaglandin E2 10 nM; fluorescent calcium indicator, FDSS 7000
T1 construct: expressed in transfected cells
T1 sequence (P70597 1-405): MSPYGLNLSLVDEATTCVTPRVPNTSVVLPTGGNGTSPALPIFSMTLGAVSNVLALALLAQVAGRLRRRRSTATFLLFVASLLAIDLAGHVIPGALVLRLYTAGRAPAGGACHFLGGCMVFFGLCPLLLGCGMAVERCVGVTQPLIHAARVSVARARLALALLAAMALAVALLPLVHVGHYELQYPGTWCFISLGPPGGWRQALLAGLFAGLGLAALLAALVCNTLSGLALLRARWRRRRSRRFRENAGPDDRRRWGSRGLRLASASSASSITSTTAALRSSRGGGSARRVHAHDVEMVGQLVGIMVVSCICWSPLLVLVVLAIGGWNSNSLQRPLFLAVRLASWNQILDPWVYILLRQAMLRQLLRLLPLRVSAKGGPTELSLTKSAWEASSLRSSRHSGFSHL
Description: Test for Confirmation of EP1 Receptor Antagonism
(1) Preparation of Rat EP1 Expression Vector
Using Rat Kidney BD Marathon-Ready cDNA (Nippon Becton Dickinson Company, Ltd.) as a template, a forward primer shown in (SEQ ID NO:1), and a reverse primer shown in (SEQ ID NO:2), a first run of PCR was carried out using KOD-Plus-Ver 2.0 (Toyobo Co., Ltd.). Further, using this amplification product as a template, a forward primer shown in (SEQ ID NO:3), and a reverse primer shown in (SEQ ID NO:4), a second run of PCR was carried out in the same manner. The amplification product obtained by the second run of PCR was incorporated into a vector (pcDNA3.1 D/V5-His-TOPO (registered trademark), Invitrogen Japan K. K.). By a conventional method, the vector containing this amplification product was introduced to E. coli (One Shot TOP 10 Competent Cells, Invitrogen Corporation) to transform. This transformed E. coli was cultured in an LB agar medium for one day. After the culture, colonies were selected and cultured in an LB liquid medium containing 50 μg/mL of ampicillin. After the culture, the vector was purified using a QIAprep Spin Miniprep Kit (Qiagen K. K.). The base sequence of the insertion site of this vector (SEQ ID NO:5) was compared with the rat EP1 base sequence (Ptger1) registered as Accession No. NM_013100 in publicly-known database (NCBI), and as a result, they all matched except for a single base. Further, the amino acid sequence translated by the base sequence completely matched the amino acid sequence of the rat EP1 receptor registered as an NCBI Accession No. NP_037232. Therefore, it was confirmed that the cloned gene sequence was a base sequence of the rat EP1 receptor and the obtained amino acid sequence was that of the rat EP1 receptor. The pcDNA3.1 D/V5-His-TOPO (registered trademark) to which the nucleic acid shown in (SEQ ID NO:5) had been inserted was taken as a rat EP1-expressing vector.
(2) Preparation of Rat EP1 Receptor-Expressing Cells
COS-1 cells (Dainippon Sumitomo Pharma Co., Ltd.) were cultured until they reached confluence in an incubator at 37° C. under a 5% CO2 gas condition, using a D-MEM liquid medium (high glucose and L-glutamine contained, Invitrogen Corporation) to which a penicillin-streptomycin solution (Invitrogen Corporation, final concentration: 100 U/mL as benzylpenicillin; 100 μg/mL as streptomycin) as an antibiotic, MEM nonessential amino acids (Invitrogen Corporation, final concentration: 0.1 mM), and fetal calf serum (Sanko Junyaku Co., Ltd., final concentration: 10%) were added.
The cells that had reached confluence were stripped with 0.05% trypsin/0.53 mM EDTA.4Na, and resuspended in a D-MEM liquid medium (high glucose and L-glutamine contained, Invitrogen Corporation) to which an MEM nonessential amino acid (final concentration: 0.1 mM) and fetal calf serum (final concentration: 10%) were added. In each well of a Poly D-lysine-coated 96-well microplate (BD BioCoat (registered trademark), Nippon Becton Dickinson Company, Ltd.), this resuspended cell suspension culture was prepared to be 5×10^4 cells/well in 100 μL of the liquid medium, and 100 μL of the cell suspension was seeded on each well. After seeding, the cells were cultured in an incubator at 37° C. under a 5% CO2 gas condition. At a point when the cells for introduction of a rat EP1-expressing vector were adhered (about 2 hours after seeding), introduction of the rat EP1-expressing vector was carried out in the following order.
For introduction of the rat EP1-expressing vector, Lipofectamine 2000 (Invitrogen Japan K. K.) was used. The rat EP1-expressing vector was diluted with OPTI-MEM (registered trademark) I Reduced-Serum Medium (Invitrogen Japan K. K.) to 200 ng/25 μL/well, and at the same time, Lipofectamine 2000 (Invitrogen Japan K. K.) was also diluted with OPTI-MEM (registered trademark) I Reduced-Serum Medium (Invitrogen Japan K. K.) to 0.5 μL/25 μL/well, followed by incubation at room temperature for 5 minutes. […]

[2] = test system: Sulprostone-Induced Bladder Contraction; test: Inhibitory effect of compound on sulprostone-induced bladder contraction; assay type: in vivo, rat; settings: female SD rats, urethane anesthesia, sulprostone 0.3 mg/kg s.c., test agent 1.0 mg/kg intravenously; for Bladder Contraction Inhibition Rate 15 minutes: 15 minutes from administration; for Bladder Contraction Inhibition Rate 60 minutes: 60 minutes from administration
Excerpt: Inhibitory Effect of Compound on Sulprostone-Induced Bladder Contraction
Female SD rats were used. Under urethane anesthesia (1.25 g/kg, administered subcutaneously), a tracheal cannula (Size 8, HIBIKI) and a femoral vein cannula for administration (23 G needle-equipped PESO) were inserted thereinto. The bladder cannula (PESO) was inserted from the bladder apex. The bladder cannula was connected to a three-way stopcock, and then, one was connected to a pressure transducer and the other was connected to a syringe filled with saline. Saline was injected to the bladder at an injection rate of 3.6 mL/hour and the bladder contraction pressure was recorded at the time of injection with a recorder (RECTI-HORITZ-8K, NEC Corporation). After 10 minutes from stabilization of the bladder contraction pressure during urination, sulprostone was administered subcutaneously (0.3 mg/kg). Then, at the time point when the bladder contraction pressure became constant, a test agent was administered intravenously (1.0 mg/kg). An average bladder contraction pressure during the 10 minute period before administration of sulprostone was taken as a baseline (0%). Further, an average bladder contraction pressure during the 10 minute period directly before administration of the test agent was taken as a maximum bladder contraction pressure (100%). The average bladder contraction pressures were measured during 5 minutes before and after at 15 minutes and 60 minutes from administration of the test agent. The ratio of this measured value to the maximum bladder contraction pressure was calculated by the following equation and taken as an average bladder contraction rate after administration of the test agent: (Average Bladder Contraction Rate after Administration of Test Agent (%))=[(Average Bladder Contraction Pressure after Administration of Test Agent)/(Maximum Bladder Contraction Pressure)]×100 EQUATION 1
In addition, the difference between the maximum bladder contraction rate (100%) and the average bladder contraction rate (%) after administration of the test agent was calculated by the following equation and taken as a bladder contraction inhibition rate of the test agent: (Bladder Contraction Inhibition Rate)=100%−(Average Bladder Contraction Rate after Administration of Test Agent (%)) EQUATION 2

| SMILES | IC50 [1] [nM] | Bladder Contraction Inhibition Rate 15 minutes [2] [%] | Bladder Contraction Inhibition Rate 60 minutes [2] [%] |
| --- | --- | --- | --- |
| CS(=O)(=O)NC(=O)c1cccc(Cc2c(-c3ccccc3)[nH]c3cc(C4CC4)ccc23)n1 [Example 2-2, 6-(6-Cyclopropyl-2-phenyl-1H-indol-3-ylmethyl)-N-methanesulfonylpyridine-2-carboxamide] | 29 | 90.0 | 70.4 |
| Cc1ccc2c(Cc3cccc(C(=O)NS(C)(=O)=O)n3)c(-c3ccccc3)[nH]c2c1 [Example 3-1, N-Methanesulfonyl-6-(6-methyl-2-phenyl-1H-indol-3-ylmethyl)pyridine-2-carboxamide] | 33 | 77.3 | 78.2 |
| CCS(=O)(=O)NC(=O)c1cccc(Cc2c(-c3ccsc3)[nH]c3cc(OC)ccc23)n1 [Example 3-35, N-ethanesulfonyl-6-(6-methoxy-2-thiophen-3-yl-1H-indol-3-ylmethyl)pyridine-2-carboxamide] | 46 | 45.9 | 45.1 |
| c1ccc(-c2[nH]c3cc(C4CC4)ccc3c2Cc2cccc(-c3nnn[nH]3)n2)cc1 [Example 5-1, 6-Cyclopropyl-2-phenyl-3-[6-(1H-tetrazol-5-yl)pyridin-2-ylmethyl]-1H-indole] | 61 | 82.8 | 91.6 |
| COc1cc2[nH]c(-c3ccccc3)c(Cc3cccc(C(=O)NS(=O)(=O)C(C)C)n3)c2cc1F [Example 18-3] | 41 |  |  |
| COc1cc2[nH]c(-c3ccccc3)c(Cc3cccc(C(=O)NS(=O)(=O)C4CC4)n3)c2cc1F [Example 18-4] | 35 |  |  |
| CCCS(=O)(=O)NC(=O)c1cccc(Cc2c(-c3ccccc3)[nH]c3cc(OC)c(F)cc23)n1 [Example 18-5] | 32 |  |  |
| COc1cc2[nH]c(-c3ccccc3)c(Cc3cccc(C(=O)NS(=O)(=O)c4ccccc4)n3)c2cc1F [Example 18-11] | 27 |  |  |
| COc1ccc2c(Cc3cccc(C(=O)NS(=O)(=O)c4ccccc4F)n3)c(C(C)(C)C)[nH]c2c1 [Example 18-13] | 40 |  |  |
| COc1ccc2c(Cc3cccc(/C=C/c4nnn[nH]4)n3)c(-c3ccccc3)[nH]c2c1 [Example 19, 6-Methoxy-2-phenyl-3-{6-[(E)-2-(1H-tetrazol-5-yl)vinyl]pyridine-2-ylmethyl}-1H-indole] | 34 |  |  |
| COc1cc2c(Cc3cccc(-c4nnn[nH]4)n3)c(C3(C)CC3)[nH]c2cc1Cl [Example 20-1, 6-chloro-5-methoxy-2-(1-methylcyclopropyl)-3-[6-(1H-tetrazol-5-yl)pyridin-2-ylmethyl]-1H-indole] | 27 |  |  |

Further lines, with some results ahead:

| IC50 [1] [nM] | SMILES | Bladder Contraction Inhibition Rate 15 minutes [2] [%] | Bladder Contraction Inhibition Rate 60 minutes [2] [%] |
| --- | --- | --- | --- |
| 27 | COc1ccc2c(Cc3cccc(C(=O)NS(C)(=O)=O)n3)c(-c3ccccc3)[nH]c2c1 [Example 2-1, N-Methanesulfonyl-6-(6-methoxy-2-phenyl-1H-indol-3-ylmethyl)pyridine-2-carboxamide] | 68.3 | 84.0 |
| 18 | CCS(=O)(=O)NC(=O)c1cccc(Cc2c(-c3ccccc3)[nH]c3cc(OC)ccc23)n1 [Example 3-6] | 67.5 | 63.6 |
| 25 | COc1cc2[nH]c(-c3ccccc3)c(Cc3cccc(C(=O)NS(C)(=O)=O)n3)c2cc1F [Example 3-9, 6-(5-fluoro-6-methoxy-2-phenyl-1H-indol-3-ylmethyl)-N-methanesulfonylpyridine-2-carboxamide] | 76.4 | 78.9 |
| 4.7 | COc1ccc2c(Cc3cccc(-c4nnn[nH]4)n3)c(-c3ccccc3)[nH]c2c1 [Example 5-2, 6-methoxy-2-phenyl-3-[6-(1H-tetrazol-5-yl)pyridin-2-ylmethyl]-1H-indole] | 88.2 | 76.2 |
| 24 | CC1(c2[nH]c3cc(Cl)ccc3c2Cc2cccc(-c3nnn[nH]3)n2)CC1 [Example 17-14, 6-chloro-2-(1-methylcyclopropyl)-3-[6-(1H-tetrazol-5-yl)pyridin-2-ylmethyl]-1H-indole] |  |  |
| 23 | CCS(=O)(=O)NC(=O)c1cccc(Cc2c(-c3ccsc3)[nH]c3cc(C)ccc23)n1 [Example 18-9] |  |  |
| 26 | Cc1ccc2c(Cc3cccc(C(=O)NS(=O)(=O)C(C)C)n3)c(-c3ccsc3)[nH]c2c1 [Example 18-10] |  |  |
| 15 | CCc1ccc2c(Cc3cccc(-c4nnn[nH]4)n3)c(C3(C)CC3)[nH]c2c1 [Example 20-2, 6-ethyl-2-(1-methylcyclopropyl)-3-[6-(1H-tetrazol-5-yl)pyridin-2-ylmethyl]-1H-indole] |  |  |
| 14 | COc1cc2[nH]c(C3(C)CC3)c(Cc3cccc(-c4nnn[nH]4)n3)c2cc1C [Example 20-4, 6-methoxy-5-methyl-2-(1-methylcyclopropyl)-3-[6-(1H-tetrazol-5-yl)pyridin-2-ylmethyl]-1H-indole] |  |  |
| 11 | COc1ccc2c(Cc3cccc(-c4nnn[nH]4)n3)c(-c3cncnc3)[nH]c2c1 [Example 23, 6-Methoxy-2-pyrimidin-5-yl-3-[6-(1H-tetrazol-5-yl)pyridin-2-ylmethyl]-1H-indole] |  |  |
